Data set [1] has as its system cotton event pDAB4468.19.10.3. The data set is described as follows: Tolerance to 2,4-D in field trials (percent visual injury). The format is in vivo, Gossypium hirsutum. To be noted: for Percent visual injury: single post-emergence application, 2-4 leaf. The method, then: The tolerance of cotton event pDAB4468.19.10.3 to post-emergence applications of the phenoxyacetic acid herbicide, 2,4-D, was studied in field trials during the 2010 growing season. Herbicide tolerance was assessed following a single post-emergence application of 2,4-D applied to 2-4 leaf cotton event pDAB4468.19.10.3. The application of 2,4-D on cotton plants at this stage of development represents a herbicide application timing typically utilized to achieve satisfactory weed control by cotton growers.
2,4-D tolerance was measured by assessing cotton plants for injury at 0-1 day after application (DAA), 7-8 DAA, 12-16 DAA, and 24-32 DAA. Measurements for the 0-1 day time increment were taken from 6-24 hours after the application. Injury was assessed by assigning a percent visual injury rating using a linear percentage scale (1-100%) where 0% represents no visible herbicide injury and 100% represents plant death. The ratings were a composite score for any herbicide symptomology including epinasty, chlorosis, leaf necrosis and plant death. Herbicide symptomology present at 0-1 DAA was primarily epinasty and symptoms at later evaluations were primarily chlorosis and necrosis.
(§1) Field trials were conducted at eleven locations across the United States in typical cotton producing areas of Alabama, Arkansas, California, Georgia, Louisiana, Mississippi, North Carolina, South Carolina, and Tennessee. Trials were designed with four replications per treatment. Each replication was separated by a bare-soil alley 10-15 feet wide. Plot size for individual treatments was 2 rows by 20 feet long with rows typically spaced 36-40 inches apart. Experimental treatments consisted of cotton event pDAB4468.19.10.3 sprayed with 2,4-D amine (Weedar 64™, NuFarm, Burr Ridge, Ill.) at either 0, 1120, 2240, or 4480 grams acid equivalent per hectare (g ae/ha) applied in 15 gallons per acre of final spray solution. A non-transformed cotton comparator treatment was not included in these experiments since treatment with 2,4-D at rates much lower than the lowest rate tested (1120 g ae/ha) are known to result in plant death.

The test system of data set [2] is cotton event pDAB4468.19.10.3. The data set is described as follows: Agronomic characterization in field trials with and without herbicide applications. In kind it is in vivo, Gossypium hirsutum. To be noted: sprayed vs unsprayed event plants; standard field application rates. The text has this:
The agronomic characteristics of cotton event pDAB4468.19.10.3 were quantified in field trials conducted across geographically different locations throughout the cotton belt in 2010. These studies compared the agronomic performance of cotton event pDAB4468.19.10.3 (with and without applications of the herbicides 2,4-D and glufosinate) to the non-transgenic near-isoline control, Coker 310. No agronomically meaningful unintended differences were observed between cotton event pDAB4468.19.10.3 and the Coker 310 control plants. […] Additionally, the agronomic performance of cotton event pDAB4468.19.10.3 was not altered as a result of the application of the herbicides, 2,4-D and glufosinate, as compared to the cotton event pDAB4468.19.10.3 plants which were not sprayed with the herbicide treatments. […]
Seeds of cotton event pDAB4468.19.10.3 and seeds of the near-isoline control line, Coker 310, were planted at a rate of 80 seeds per 20 ft row with a row spacing of 34-38 inches (86.36 cm-96.52 cm). […] The measured agronomic characteristics were equivalent for cotton event pDAB4468.19.10.3 as compared to the Coker 310 near-isoline control plants for all of the agronomic characteristics measured and statistically analyzed. […]

Data set [3] relates to non-transformed cotton. To be noted: rates much lower than the lowest rate tested (1120 g ae/ha); known; cited from earlier work.
Data set [4] has as its system cotton event pDAB4468.19.10.3. In words: Tolerance to glufosinate in field trials (percent visual injury). In kind it is in vivo, Gossypium hirsutum. To be noted: for Percent visual injury: single post-emergence application, 6-8 leaf. The procedure: The tolerance of cotton event pDAB4468.19.10.3 to post-emergence applications of glufosinate was studied in field trials during the 2010 growing season. Herbicide tolerance was assessed following a single post-emergence application of glufosinate applied to 6-8 leaf cotton event pDAB4468.19.10.3, which represents a herbicide application timing typically utilized with glufosinate to achieve satisfactory weed control.
Glufosinate tolerance was measured by assessing cotton plants for injury at 2-4 days after application (DAA), 7-9 DAA, 13-19 DAA and 22-29 DAA. Injury was assessed by assigning a percent visual injury rating using a linear percentage scale (1-100) where 0% represents no visible herbicide injury and 100% represents plant death. The ratings were a composite score for any herbicide symptomology including chlorosis, leaf necrosis, stunting and plant death. Herbicide symptomology (where present) was primarily chlorosis and necrosis.
as §1, with “glufosinate ammonium (Ignite 280 SL™, Bayer, Research Triangle, N.C.)” for “2,4-D amine (Weedar 64™, NuFarm, Burr Ridge, Ill.)”, “542, 1084,” for “1120, 2240,”, “2168” for “4480”, “glufosinate” for “2,4-D”, “(542” for “(1120”, “would be expected” for “are known”

Turning to `O=C(O)COc1ccc(Cl)cc1Cl` [2,4-D], the “herbicide injury noted in the field experiments” value in data set [1] (1120-4480 g ae/ha, with the exception of transient epinasty 0-1 DAA) is reported as “no agronomically-significant herbicide injury”. In addition, the Percent visual injury turned out to be 3.6% in data set [1] (1120 g ae/ha, 0-1 DAA); 1.4% in data set [1] (1120 g ae/ha, 7-8 DAA); 0.6% in data set [1] (1120 g ae/ha, 12-16 DAA); 0.0% in data set [1] (1120 g ae/ha, 24-32 DAA); 11.8% in data set [1] (2240 g ae/ha, 0-1 DAA); 3.5% in data set [1] (2240 g ae/ha, 7-8 DAA). For the same compound, the Percent visual injury in data set [1] (2240 g ae/ha, 12-16 DAA) came out at 2.7%; in data set [1] (2240 g ae/ha, 24-32 DAA), 0.1%; in data set [1] (4480 g ae/ha, 0-1 DAA), 19.4%; in data set [1] (4480 g ae/ha, 7-8 DAA), 11.0%; in data set [1] (4480 g ae/ha, 12-16 DAA), 5.9%; in data set [1] (4480 g ae/ha, 24-32 DAA), 0.6%. Moreover, the “crop injury beyond the 7-8 DAA evaluation interval” value in data set [1] (4480 g ae/ha (>4x rate required for weed control)) was “little crop injury”. Moreover, the “agronomic performance of the event as a result of herbicide application” value in data set [2] is “not altered”. Moreover, the “result of treatment of non-transformed cotton” value in data set [3] is on record as “plant death”.
Take `CP(=O)(O)CCC(N)C(=O)O` (stereo not shown) [glufosinate]: in data set [4] (542-2168 g ae/ha, with the exception of transient chlorosis at 2168 g ae/ha at 2-4 & 7-9 DAA), the “herbicide injury noted in the field experiments” value is “no agronomically significant herbicide injury”. In addition, the Percent visual injury in data set [4] (542 g ae/ha, 2-4 DAA) is listed as 2.7%; in data set [4] (542 g ae/ha, 7-9 DAA) it was 1.9%; in data set [4] (542 g ae/ha, 13-19 DAA) it was 0.1%; in data set [4] (542 g ae/ha, 22-29 DAA), 0.0%; in data set [4] (1084 g ae/ha, 2-4 DAA), 6.6%; in data set [4] (1084 g ae/ha, 7-9 DAA) it was 4.0%. In addition, the Percent visual injury in data set [4] (1084 g ae/ha, 13-19 DAA) came to 0.2%; in data set [4] (1084 g ae/ha, 22-29 DAA) it was 0.0%; in data set [4] (2168 g ae/ha, 2-4 DAA) it was 13.5%; in data set [4] (2168 g ae/ha, 7-9 DAA), 10.0%; in data set [4] (2168 g ae/ha, 13-19 DAA), 2.3%; in data set [4] (2168 g ae/ha, 22-29 DAA), 0.3%. Further, the “crop injury beyond the 7-9 DAA evaluation interval” value in data set [4] (2168 g ae/ha (>4x rate required for weed control)) is given as “little crop injury”. The “agronomic performance of the event as a result of herbicide application” value in data set [2] is recorded as “not altered”.
